Activity calls are given as the source filed them.
Experiments:
[1] = system: Vero; test: cells; type: functional; conditions: Chlorocebus sabaeus
[2] = target: Serine/threonine-protein phosphatase (Homo sapiens, UniProt Q9BPW0); test: inhibition of protein phosphatase 5 activity – biochemical, fluorescence, dose response (AID 2395)
[3] = target: Hexokinase HKDC1 (Homo sapiens, UniProt Q2TB90); test: inhibition of HKDC1 glucose phosphorylation – biochemical, W721R variant, dose response (AID 504729); type: functional
Sequence of Hexokinase HKDC1 (Q2TB90 whole entry): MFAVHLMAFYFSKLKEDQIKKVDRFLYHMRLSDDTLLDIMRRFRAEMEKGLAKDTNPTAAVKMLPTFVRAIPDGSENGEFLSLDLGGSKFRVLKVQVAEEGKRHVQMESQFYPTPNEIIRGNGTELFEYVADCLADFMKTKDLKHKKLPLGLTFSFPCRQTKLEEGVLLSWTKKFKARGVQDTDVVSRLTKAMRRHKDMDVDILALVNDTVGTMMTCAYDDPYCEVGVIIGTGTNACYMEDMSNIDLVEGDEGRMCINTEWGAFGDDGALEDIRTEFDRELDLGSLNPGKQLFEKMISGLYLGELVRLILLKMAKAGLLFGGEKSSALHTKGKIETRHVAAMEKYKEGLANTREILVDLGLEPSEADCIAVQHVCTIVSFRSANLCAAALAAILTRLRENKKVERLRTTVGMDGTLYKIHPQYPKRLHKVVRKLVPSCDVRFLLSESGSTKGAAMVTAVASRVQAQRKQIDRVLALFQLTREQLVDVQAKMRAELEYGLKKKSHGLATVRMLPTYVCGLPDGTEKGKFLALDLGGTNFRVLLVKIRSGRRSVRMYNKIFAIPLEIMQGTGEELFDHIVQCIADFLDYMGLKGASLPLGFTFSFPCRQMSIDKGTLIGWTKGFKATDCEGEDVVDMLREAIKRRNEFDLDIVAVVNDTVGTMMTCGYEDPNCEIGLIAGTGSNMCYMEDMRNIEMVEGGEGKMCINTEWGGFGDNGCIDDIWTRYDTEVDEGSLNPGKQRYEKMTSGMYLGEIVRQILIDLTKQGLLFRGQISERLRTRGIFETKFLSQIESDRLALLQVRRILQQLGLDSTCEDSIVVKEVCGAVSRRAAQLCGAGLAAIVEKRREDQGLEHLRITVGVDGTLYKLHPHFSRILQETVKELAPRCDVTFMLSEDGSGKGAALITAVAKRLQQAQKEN

[4] = loss of viability in HepG2 cells – cell-based, CellTiter-Glo, cherry-picked, cytotoxicity control for Shn3 inhibitor project, dose response (AID 624134); type: functional
[5] = viability of PTEN-deleted HCT116 cells – cell-based, HCT116 PTEN knockout, dose response (AID 1047); type: functional;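 also: HCT116 colon tumor cells with PTEN knocked out; cells exposed to compound for 60 hours before readout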
[6] = system: CHO; test: CHO cell viability loss, potency – luminescence, cytotoxicity control for TLR9-MyD88 binding inhibitor project, dose response (AID 588339); type: functional, cell-based, hamster; conditions: Cricetulus griseus;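 also: CHO cells stably coexpressing TLR9 and MyD88 fusions from primary screen; compound exposure lasted 48 hours before viability readout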
[7] = system: HeLa; test: Cytotoxicity counterscreen assay for transcriptional activators of heat shock protein 70 (Hsp70). [Related pubchem assays: 1203, 1252 ]; type: functional; conditions: Homo sapiens;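 also: cells exposed to compound for 16 hours before readout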
[8] = target: Wee1-like protein kinase (Homo sapiens, UniProt P30291); test: Dose Response Cell-based Assay for Inhibitors of Wee1 Degradation. [Related pubchem assays: 1410, 1321 ]; type: functional
Sequence of Wee1-like protein kinase (P30291 whole entry): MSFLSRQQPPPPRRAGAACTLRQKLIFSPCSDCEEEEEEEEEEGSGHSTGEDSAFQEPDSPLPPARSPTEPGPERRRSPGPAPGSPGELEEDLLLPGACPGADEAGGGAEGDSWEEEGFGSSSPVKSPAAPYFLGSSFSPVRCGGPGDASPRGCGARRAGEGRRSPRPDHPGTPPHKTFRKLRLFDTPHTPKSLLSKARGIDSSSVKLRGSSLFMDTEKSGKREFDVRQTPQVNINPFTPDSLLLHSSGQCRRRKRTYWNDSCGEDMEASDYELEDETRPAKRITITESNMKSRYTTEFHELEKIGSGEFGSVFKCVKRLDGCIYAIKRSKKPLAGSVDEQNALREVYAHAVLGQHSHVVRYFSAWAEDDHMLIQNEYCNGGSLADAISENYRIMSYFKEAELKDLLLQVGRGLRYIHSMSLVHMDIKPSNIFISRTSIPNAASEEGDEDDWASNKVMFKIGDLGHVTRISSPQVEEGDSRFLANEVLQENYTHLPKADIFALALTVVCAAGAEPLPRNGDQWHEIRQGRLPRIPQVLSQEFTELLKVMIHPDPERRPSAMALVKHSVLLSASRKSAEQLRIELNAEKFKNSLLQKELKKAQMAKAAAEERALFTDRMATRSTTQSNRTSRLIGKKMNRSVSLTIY

[9] = viability loss in HeLa cells – cytotoxicity control for MgcRacGAP inhibitor project, dose response (AID 624300); type: functional
[10] = alpha-synuclein stem-loop luciferase translation blockers – H4 neuroglioma cells, luminescence, confirmation (AID 1988); type: functional, cell-based
[11] = target: Beta Lactamase (Pseudomonas aeruginosa, UniProt Q932Y6); test: BLA reporter interference, concentration series – BLA reporter cells, FRET fluorescence, artefact control for TLR9-MyD88 binding inhibitor project, dose response (AID 588341); type: cell-based;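 also: cell based assay in CHO-K1 cells stably expressing beta-lactamase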
Sequence of Beta Lactamase (Q932Y6 whole entry): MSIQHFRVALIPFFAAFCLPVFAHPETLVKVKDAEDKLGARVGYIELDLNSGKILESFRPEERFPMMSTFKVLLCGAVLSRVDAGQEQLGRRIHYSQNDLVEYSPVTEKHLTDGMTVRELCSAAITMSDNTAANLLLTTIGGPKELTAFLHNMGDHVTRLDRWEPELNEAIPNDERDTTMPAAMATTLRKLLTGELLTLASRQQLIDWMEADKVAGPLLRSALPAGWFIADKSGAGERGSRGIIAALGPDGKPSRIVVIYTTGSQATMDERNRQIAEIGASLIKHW

[12] = reduced cellular PGC1a acetyl-lysine signal – cell-based, cherry-picked samples, dose response (AID 720514); type: functional;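 also: potency may reflect raised or lowered acetylation signal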
[13] = target: G2/mitotic-specific cyclin-B1 (Homo sapiens, UniProt P14635); test: Counterscreen assay for inhibitors of Wee1 degradation: dose response cell-based assay to identify inhibitors of cyclin B degradation. [Related pubchem assays: 1410, 1321 ]; type: functional
Sequence of G2/mitotic-specific cyclin-B1 (P14635 whole entry): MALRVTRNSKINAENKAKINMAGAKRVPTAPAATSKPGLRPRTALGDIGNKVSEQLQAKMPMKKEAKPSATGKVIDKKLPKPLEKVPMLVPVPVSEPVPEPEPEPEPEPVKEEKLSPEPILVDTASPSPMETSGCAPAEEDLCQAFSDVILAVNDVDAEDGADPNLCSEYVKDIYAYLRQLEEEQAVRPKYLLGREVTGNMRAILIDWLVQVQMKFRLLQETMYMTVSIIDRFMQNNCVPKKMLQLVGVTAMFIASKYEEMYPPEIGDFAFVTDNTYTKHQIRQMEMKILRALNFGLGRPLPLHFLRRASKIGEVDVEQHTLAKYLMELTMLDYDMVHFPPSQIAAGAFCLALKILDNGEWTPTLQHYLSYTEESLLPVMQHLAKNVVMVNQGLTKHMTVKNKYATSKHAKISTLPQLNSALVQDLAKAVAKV

[14] = target: Type-1 angiotensin II receptor (Homo sapiens, UniProt P30556); test: antagonism of angiotensin II type 1 receptor – cell-based, uHTS hits, selectivity assay for APJ receptor antagonist project, dose response (AID 463214); type: functional;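 also: antagonist potency against angiotensin II stimulated AT1 response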
Sequence of Type-1 angiotensin II receptor (P30556 whole entry): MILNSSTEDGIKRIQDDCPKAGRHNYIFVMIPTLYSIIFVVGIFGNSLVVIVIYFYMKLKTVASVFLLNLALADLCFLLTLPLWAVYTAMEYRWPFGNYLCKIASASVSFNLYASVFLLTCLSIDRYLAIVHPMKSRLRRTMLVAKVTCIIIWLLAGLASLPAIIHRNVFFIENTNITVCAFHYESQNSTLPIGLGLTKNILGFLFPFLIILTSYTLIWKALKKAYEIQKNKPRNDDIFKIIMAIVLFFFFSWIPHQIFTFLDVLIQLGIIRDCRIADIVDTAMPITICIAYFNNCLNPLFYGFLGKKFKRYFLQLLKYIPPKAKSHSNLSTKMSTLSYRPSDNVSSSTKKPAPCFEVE

[15] = luciferase reporter signal suppression in cells – H4 neuroglioma cells, luminescence, dose response (AID 1990); type: functional, cell-based

Sequence of Serine/threonine-protein phosphatase (Q9BPW0 whole entry): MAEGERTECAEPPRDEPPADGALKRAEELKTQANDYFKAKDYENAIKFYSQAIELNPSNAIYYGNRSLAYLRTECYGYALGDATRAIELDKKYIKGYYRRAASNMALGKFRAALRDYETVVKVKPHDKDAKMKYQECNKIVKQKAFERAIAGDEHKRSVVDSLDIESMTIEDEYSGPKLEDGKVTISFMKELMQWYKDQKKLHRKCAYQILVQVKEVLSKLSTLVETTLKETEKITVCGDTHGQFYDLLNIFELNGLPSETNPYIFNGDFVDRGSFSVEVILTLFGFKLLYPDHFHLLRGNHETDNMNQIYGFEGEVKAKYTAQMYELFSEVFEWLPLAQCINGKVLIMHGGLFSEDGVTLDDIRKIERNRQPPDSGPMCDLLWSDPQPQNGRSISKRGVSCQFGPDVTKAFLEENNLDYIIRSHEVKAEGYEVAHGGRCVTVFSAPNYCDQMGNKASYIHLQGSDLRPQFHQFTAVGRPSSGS

SMILES	CC50 [1]	IC50 [2]	IC50 [3]	AC50 [4]	EC50 [5]	IC50 [6]	CC50 [7]	EC50 [8]	CC50 [9]	EC50 [10]	IC50 [11]	AC50 [12]	EC50 [13]	IC50 [14]	EC50 [15]
Cc1ccc(S(=O)(=O)/N=C2\C=C(Nc3cccc(C(=O)O)c3)C(=O)c3ccccc32)c(C)c1	> 25 µM (active)	12.3 µM (not active)	8.6 µM (active)	–	–	–	–	–	–	–	–	–	–	–	–
COc1ccc(NC(=O)/C(Cl)=C(/Cl)[S+]([O-])Cc2ccccc2)cn1 (stereo not given)	–	–	–	5.52 µM (active)	0.197 µM (active)	0.453 µM (active)	1.75 µM (active)	> 49.7 µM (not active)	24.1 µM (active)	4.57 µM (active)	16 µM (inactive)	1.65 µM (active)	> 1.84 µM (active)	3.93 µM (active)	5.93 µM (active)

Reference: ChEMBL document CHEMBL1201862, “PubChem BioAssay data set” (2004)
